Values after ≈ are worked out from the molar mass of the structure shown.
Key:
Format in all cases: functional
Aspergillus fumigatus [1] = test: Antifungal activity against Aspergillus fumigatus after 48 hr by agar streak dilution method
Aspergillus niger [2] = test: Antifungal activity against Aspergillus niger after 48 hr by agar streak dilution method
Escherichia coli [3] = test: Antibacterial activity against Escherichia coli after 24 hr by agar streak dilution method
Candida albicans [4] = test: Antifungal activity against Candida albicans after 48 hr by agar streak dilution method
Aspergillus clavatus [5] = test: Antifungal activity against Aspergillus clavatus at 100 ug/disc after 48 hr by paper disk diffusion method; conditions: read-out: IZ
Shigella flexneri [6] = test: Antibacterial activity against Shigella flexneri at 100 ug/disc after 24 hr by paper disk diffusion method; conditions: read-out: IZ
Pseudomonas aeruginosa [7] = test: Antibacterial activity against Pseudomonas aeruginosa after 24 hr by agar streak dilution method
Salmonella typhi [8] = test: Antibacterial activity against Salmonella enterica subsp. enterica serovar Typhi at 100 ug/disk after 24 hr by paper disk diffusion method; conditions: read-out: IZ
Aspergillus fumigatus [9] = test: Antifungal activity against Aspergillus fumigatus at 100 ug/disc after 48 hr by paper disk diffusion method; conditions: read-out: IZ
Pseudomonas aeruginosa [10] = test: Antibacterial activity against Pseudomonas aeruginosa at 100 ug/disk after 24 hr by paper disk diffusion method; conditions: read-out: IZ
Staphylococcus aureus [11] = test: Antibacterial activity against Staphylococcus aureus after 24 hr by agar streak dilution method
Staphylococcus aureus [12] = test: Antibacterial activity against Staphylococcus aureus at 100 ug/disc after 24 hr by paper disk diffusion method; conditions: read-out: IZ
Aspergillus niger [13] = test: Antifungal activity against Aspergillus niger at 100 ug/disk after 48 hr by paper disk diffusion method; conditions: read-out: IZ
Proteus vulgaris [14] = test: Antibacterial activity against Proteus vulgaris after 24 hr by agar streak dilution method
Candida albicans [15] = test: Antifungal activity against Candida albicans at 100 ug/disk after 48 hr by paper disk diffusion method; conditions: read-out: IZ
Shigella flexneri [16] = test: Antibacterial activity against Shigella flexneri after 24 hr by agar streak dilution method
Aspergillus clavatus [17] = test: Antifungal activity against Aspergillus clavatus after 48 hr by agar streak dilution method
Klebsiella pneumoniae [18] = test: Antibacterial activity against Klebsiella pneumoniae after 24 hr by agar streak dilution method
Bacillus subtilis [19] = test: Antibacterial activity against Bacillus subtilis after 24 hr by agar streak dilution method
Salmonella typhi [20] = test: Antibacterial activity against Salmonella enterica subsp. enterica serovar Typhi after 24 hr by agar streak dilution method
Escherichia coli [21] = test: Antibacterial activity against Escherichia coli at 100 ug/disk after 24 hr by paper disk diffusion method; conditions: read-out: IZ
Klebsiella pneumoniae [22] = test: Antibacterial activity against Klebsiella pneumoniae at 100 ug/disk after 24 hr by paper disk diffusion method; conditions: read-out: IZ
Proteus vulgaris [23] = test: Antibacterial activity against Proteus vulgaris at 100 ug/disk after 24 hr by paper disk diffusion method; conditions: read-out: IZ
Bacillus subtilis [24] = test: Antibacterial activity against Bacillus subtilis at 100 ug/disk after 24 hr by paper disk diffusion method; conditions: read-out: IZ

SMILES: Cc1cc(=O)oc2cc(Oc3nc(Nc4ccc(N5C(=O)C(CN6CCN(c7ccccn7)CC6)SC5c5ccccc5C(=O)O)cc4)nc(N(C)C)n3)ccc12 (stereo not given)
- MIC (Aspergillus fumigatus [1]): 100 mg/L (≈ 127 µM)
- MIC (Aspergillus niger [2]): 100 mg/L (≈ 127 µM)
- MIC (Escherichia coli [3]): 100 mg/L (≈ 127 µM)
- MIC (Candida albicans [4]): 100 mg/L (≈ 127 µM)
- zone of inhibition at 100 µg/disc (Aspergillus clavatus [5]): 15 mm
- zone of inhibition at 100 µg/disc (Shigella flexneri [6]): 17 mm
- MIC (Pseudomonas aeruginosa [7]): 50 mg/L (≈ 63.6 µM)
- zone of inhibition at 100 µg/disc (Salmonella typhi [8]): 11 mm
- zone of inhibition at 100 µg/disc (Aspergillus fumigatus [9]): 13 mm
- zone of inhibition at 100 µg/disc (Pseudomonas aeruginosa [10]): 18 mm
- MIC (Staphylococcus aureus [11]): 50 mg/L (≈ 63.6 µM)
- zone of inhibition at 100 µg/disc (Staphylococcus aureus [12]): 19 mm
- zone of inhibition at 100 µg/disc (Aspergillus niger [13]): 15 mm
- MIC (Proteus vulgaris [14]): 100 mg/L (≈ 127 µM)
- zone of inhibition at 100 µg/disc (Candida albicans [15]): < 10 mm
- MIC (Shigella flexneri [16]): 100 mg/L (≈ 127 µM)
- MIC (Aspergillus clavatus [17]): 100 mg/L (≈ 127 µM)
- MIC (Klebsiella pneumoniae [18]): 100 mg/L (≈ 127 µM)
- MIC (Bacillus subtilis [19]): 50 mg/L (≈ 63.6 µM)
- MIC (Salmonella typhi [20]): 100 mg/L (≈ 127 µM)
- zone of inhibition at 100 µg/disc (Escherichia coli [21]): 13 mm
- zone of inhibition at 100 µg/disc (Klebsiella pneumoniae [22]): 15 mm
- zone of inhibition at 100 µg/disc (Proteus vulgaris [23]): 15 mm
- zone of inhibition at 100 µg/disc (Bacillus subtilis [24]): 17 mm

SMILES: Cc1cc(=O)oc2cc(Oc3nc(Nc4ccc(N5C(=O)CSC5c5ccc(F)cc5)cc4)nc(N(C)C)n3)ccc12 (stereo not given)
- MIC (Aspergillus fumigatus [1]): 50 mg/L (≈ 85.5 µM)
- MIC (Aspergillus niger [2]): 12.5 mg/L (≈ 21.4 µM)
- MIC (Escherichia coli [3]): 50 mg/L (≈ 85.5 µM)
- MIC (Candida albicans [4]): 12.5 mg/L (≈ 21.4 µM)
- zone of inhibition at 100 µg/disc (Aspergillus clavatus [5]): 22 mm
- zone of inhibition at 100 µg/disc (Shigella flexneri [6]): 18 mm
- MIC (Pseudomonas aeruginosa [7]): 25 mg/L (≈ 42.8 µM)
- zone of inhibition at 100 µg/disc (Salmonella typhi [8]): 17 mm
- zone of inhibition at 100 µg/disc (Aspergillus fumigatus [9]): 18 mm
- zone of inhibition at 100 µg/disc (Pseudomonas aeruginosa [10]): 22 mm
- MIC (Staphylococcus aureus [11]): 25 mg/L (≈ 42.8 µM)
- zone of inhibition at 100 µg/disc (Staphylococcus aureus [12]): 23 mm
- zone of inhibition at 100 µg/disc (Aspergillus niger [13]): 25 mm
- MIC (Proteus vulgaris [14]): 25 mg/L (≈ 42.8 µM)
- zone of inhibition at 100 µg/disc (Candida albicans [15]): 24 mm
- MIC (Shigella flexneri [16]): 50 mg/L (≈ 85.5 µM)
- MIC (Aspergillus clavatus [17]): 25 mg/L (≈ 42.8 µM)
- MIC (Klebsiella pneumoniae [18]): 100 mg/L (≈ 171 µM)
- MIC (Bacillus subtilis [19]): 25 mg/L (≈ 42.8 µM)
- MIC (Salmonella typhi [20]): 50 mg/L (≈ 85.5 µM)
- zone of inhibition at 100 µg/disc (Escherichia coli [21]): 17 mm
- zone of inhibition at 100 µg/disc (Klebsiella pneumoniae [22]): 15 mm
- zone of inhibition at 100 µg/disc (Proteus vulgaris [23]): 20 mm
- zone of inhibition at 100 µg/disc (Bacillus subtilis [24]): 20 mm

SMILES: Cc1cc(=O)oc2cc(Oc3nc(Nc4ccc(N5C(=O)CSC5c5ccc(O)cc5)cc4)nc(N(C)C)n3)ccc12 (stereo not given)
- MIC (Aspergillus fumigatus [1]): 12.5 mg/L (≈ 21.5 µM)
- MIC (Aspergillus niger [2]): 12.5 mg/L (≈ 21.5 µM)
- MIC (Escherichia coli [3]): 12.5 mg/L (≈ 21.5 µM)
- MIC (Candida albicans [4]): 50 mg/L (≈ 85.8 µM)
- zone of inhibition at 100 µg/disc (Aspergillus clavatus [5]): 18 mm
- zone of inhibition at 100 µg/disc (Shigella flexneri [6]): 19 mm
- MIC (Pseudomonas aeruginosa [7]): 25 mg/L (≈ 42.9 µM)
- zone of inhibition at 100 µg/disc (Salmonella typhi [8]): 23 mm
- zone of inhibition at 100 µg/disc (Aspergillus fumigatus [9]): 21 mm
- zone of inhibition at 100 µg/disc (Pseudomonas aeruginosa [10]): 21 mm
- MIC (Staphylococcus aureus [11]): 12.5 mg/L (≈ 21.5 µM)
- zone of inhibition at 100 µg/disc (Staphylococcus aureus [12]): 22 mm
- zone of inhibition at 100 µg/disc (Aspergillus niger [13]): 24 mm
- MIC (Proteus vulgaris [14]): 12.5 mg/L (≈ 21.5 µM)
- zone of inhibition at 100 µg/disc (Candida albicans [15]): 19 mm
- MIC (Shigella flexneri [16]): 50 mg/L (≈ 85.8 µM)
- MIC (Aspergillus clavatus [17]): 50 mg/L (≈ 85.8 µM)
- MIC (Klebsiella pneumoniae [18]): 100 mg/L (≈ 172 µM)
- MIC (Bacillus subtilis [19]): 12.5 mg/L (≈ 21.5 µM)
- MIC (Salmonella typhi [20]): 12.5 mg/L (≈ 21.5 µM)
- zone of inhibition at 100 µg/disc (Escherichia coli [21]): 24 mm
- zone of inhibition at 100 µg/disc (Klebsiella pneumoniae [22]): 15 mm
- zone of inhibition at 100 µg/disc (Proteus vulgaris [23]): 21 mm
- zone of inhibition at 100 µg/disc (Bacillus subtilis [24]): 20 mm

SMILES: Cc1cc(=O)oc2cc(Oc3nc(Nc4ccc(N5C(=O)C(CN6CCN(c7ccccn7)CC6)SC5c5ccccc5)cc4)nc(N(C)C)n3)ccc12 (stereo not given)
- MIC (Aspergillus fumigatus [1]): 100 mg/L (≈ 135 µM)
- MIC (Aspergillus niger [2]): 100 mg/L (≈ 135 µM)
- MIC (Escherichia coli [3]): 100 mg/L (≈ 135 µM)
- MIC (Candida albicans [4]): 100 mg/L (≈ 135 µM)
- zone of inhibition at 100 µg/disc (Aspergillus clavatus [5]): 16 mm
- zone of inhibition at 100 µg/disc (Shigella flexneri [6]): 15 mm
- MIC (Pseudomonas aeruginosa [7]): 50 mg/L (≈ 67.4 µM)
- zone of inhibition at 100 µg/disc (Salmonella typhi [8]): 14 mm
- zone of inhibition at 100 µg/disc (Aspergillus fumigatus [9]): < 10 mm
- zone of inhibition at 100 µg/disc (Pseudomonas aeruginosa [10]): 19 mm
- MIC (Staphylococcus aureus [11]): 100 mg/L (≈ 135 µM)
- zone of inhibition at 100 µg/disc (Staphylococcus aureus [12]): 14 mm
- zone of inhibition at 100 µg/disc (Aspergillus niger [13]): 14 mm
- MIC (Proteus vulgaris [14]): 100 mg/L (≈ 135 µM)
- zone of inhibition at 100 µg/disc (Candida albicans [15]): 12 mm
- MIC (Shigella flexneri [16]): 100 mg/L (≈ 135 µM)
- MIC (Aspergillus clavatus [17]): 100 mg/L (≈ 135 µM)
- MIC (Klebsiella pneumoniae [18]): 100 mg/L (≈ 135 µM)
- MIC (Bacillus subtilis [19]): 100 mg/L (≈ 135 µM)
- MIC (Salmonella typhi [20]): 100 mg/L (≈ 135 µM)
- zone of inhibition at 100 µg/disc (Escherichia coli [21]): 16 mm
- zone of inhibition at 100 µg/disc (Klebsiella pneumoniae [22]): 13 mm
- zone of inhibition at 100 µg/disc (Proteus vulgaris [23]): 13 mm
- zone of inhibition at 100 µg/disc (Bacillus subtilis [24]): 16 mm

SMILES: Cc1cc(=O)oc2cc(Oc3nc(Nc4ccc(N5C(=O)CSC5c5ccccc5Br)cc4)nc(N(C)C)n3)ccc12 (stereo not given)
- MIC (Aspergillus fumigatus [1]): 25 mg/L (≈ 38.7 µM)
- MIC (Aspergillus niger [2]): 100 mg/L (≈ 155 µM)
- MIC (Escherichia coli [3]): 100 mg/L (≈ 155 µM)
- MIC (Candida albicans [4]): 25 mg/L (≈ 38.7 µM)
- zone of inhibition at 100 µg/disc (Aspergillus clavatus [5]): 20 mm
- zone of inhibition at 100 µg/disc (Shigella flexneri [6]): 10 mm
- MIC (Pseudomonas aeruginosa [7]): 50 mg/L (≈ 77.5 µM)
- zone of inhibition at 100 µg/disc (Salmonella typhi [8]): 12 mm
- zone of inhibition at 100 µg/disc (Aspergillus fumigatus [9]): 23 mm
- zone of inhibition at 100 µg/disc (Pseudomonas aeruginosa [10]): 20 mm
- MIC (Staphylococcus aureus [11]): 50 mg/L (≈ 77.5 µM)
- zone of inhibition at 100 µg/disc (Staphylococcus aureus [12]): 17 mm
- zone of inhibition at 100 µg/disc (Aspergillus niger [13]): 19 mm
- MIC (Proteus vulgaris [14]): 50 mg/L (≈ 77.5 µM)
- zone of inhibition at 100 µg/disc (Candida albicans [15]): 21 mm
- MIC (Shigella flexneri [16]): 100 mg/L (≈ 155 µM)
- MIC (Aspergillus clavatus [17]): 50 mg/L (≈ 77.5 µM)
- MIC (Klebsiella pneumoniae [18]): 100 mg/L (≈ 155 µM)
- MIC (Bacillus subtilis [19]): 50 mg/L (≈ 77.5 µM)
- MIC (Salmonella typhi [20]): 100 mg/L (≈ 155 µM)
- zone of inhibition at 100 µg/disc (Escherichia coli [21]): 17 mm
- zone of inhibition at 100 µg/disc (Klebsiella pneumoniae [22]): 13 mm
- zone of inhibition at 100 µg/disc (Proteus vulgaris [23]): 16 mm
- zone of inhibition at 100 µg/disc (Bacillus subtilis [24]): 20 mm

Reference: ChEMBL document CHEMBL3046897, “Synthesis of 3-{4-[4-dimethylamino-6-(4-methyl-2-oxo-2H-chromen-7-yloxy)-[1,3,5]triazin-2-ylamino]-phenyl}-2-phenyl-5-(4-pyridin-2-yl-piperazin-1-ylmethyl)-thiazolidin-4-one and their biological evaluation” (2012)
